Experimental data: patent US12636305B2, “Composition and method of applying same to increase survival of fish following catch-and-release situations” (Dutch Creek Nymphing, LLC, priority 2022, dated 2026)
Where “and” joins values, the source holds several entries; their conditions need not be identical. Equal values may be shown once.

Test system: Zebrafish, Danio rerio
Assay: Zebrafish swim exhaustion test (vessel plunger model)
Assay type: in vivo
Design: Immediate recovery 20 min later, % Control (change from the control treatment as a percentage of the control treatment): concentration or dose not given beside the values
Conditions: for Immediate recovery 20 min later, % Control (change from the control treatment as a percentage of the control treatment) / Immediate recovery 20 min later, Average: 20 minutes after treatment; for Immediate recovery 20 min later, % Control (change from the control treatment as a percentage of the control treatment): versus water control; for Immediate recovery 20 min later, Average: average of 8 fish; for Immediate recovery 20 min later, Average / Immediate recovery 20 min later (water vortex revolutions per minute when the fish failed to maintain swimming in place): post exhaustion; for Immediate recovery 20 min later (water vortex revolutions per minute when the fish failed to maintain swimming in place): individual fish (8 per treatment), 20 minutes after application of the treatment
From the text: This study utilizes a well-recognized vessel plunger model system to determine fish exhaustion during maximal swim performance trials (Usui T, Noble […]. The French press: a repeatable and high-throughput approach to exercising zebrafish (Danio rerio). […] In brief, zebrafish is placed in the top compartment above plunger and evaluated for its ability to swim against circular water currents created by a rotating magnetic stir bar positioned below the plunger. […] Next, the fish is brought to the water surface with the aid of a plunger and the composition is administered to the fish using one of the possible methods of administration. The fish is lowered back into the top compartment, and the individual maximum swimming speed is determined again (post-exhaustion value). This experimental setup allows one to determine the highest tolerated continuous swimming speed associated with control, exhaustion and recovery conditions that models catching, fighting, landing, treating, and releasing fish. […] The experimental methodology was substantially similar to the methods discussed in Usui, et al. (2018). […] Each treatment was administered to eight Zebrafish (n=104 total fish). […] Initial swim strength was measured prior to exhaustion of the fish and subsequent administration of the selected treatment and therefore serves as a baseline. […] After the initial swim strength test, the fish swam to exhaustion (as defined in Usui, et al. […] As anticipated by the Applicant, even post-treatment the fish became exhausted at a lower rpm, but there were significant differences in when each treatment group began to tire.

Row | Compound | Immediate recovery 20 min later, % Control (change from the control treatment as a percentage of the control treatment) | Immediate recovery 20 min later, Average | Immediate recovery 20 min later (water vortex revolutions per minute when the fish failed to maintain swimming in place)
1 | N=C(N)NCCC[C@H](N)C(=O)O [Arginine, arginine] | 17% | 484 rpm | 520 rpm (2×) and 510 rpm and 550 rpm and 450 rpm and 580 rpm and 460 rpm and 280 rpm
2 | O=C(O)CN(CCN(CC(=O)O)CC(=O)O)CC(=O)O [EDTA, ethylenediaminetetraacetic acid] | 8% | 446 rpm | 460 rpm (3×) and 430 rpm and 410 rpm (2×) and 420 rpm and 520 rpm
3 | CC(C)C[C@H](N)C(=O)O [Leucine, leucine] | 10% | 455 rpm | 460 rpm and 400 rpm and 470 rpm (2×) and 510 rpm and 490 rpm and 390 rpm and 450 rpm
4 | C/C=C/C=C/C(=O)[O-].[K+] [Potassium sorbate, potassium sorbate] | 5% | 433 rpm | 380 rpm and 420 rpm and 440 rpm and 460 rpm (2×) and 390 rpm and 500 rpm and 410 rpm
5 | CC(=O)C(=O)O [Pyruvate, pyruvate] | 9% | 451 rpm | 420 rpm (2×) and 430 rpm and 450 rpm (2×) and 510 rpm and 520 rpm and 410 rpm
6 | O=C([O-])[O-].O=C([O-])[O-].OO.OO.OO.[Na+].[Na+].[Na+].[Na+] [Sodium percarbonate, sodium percarbonate] | 24% | 514 rpm | 540 rpm (2×) and 500 rpm and 590 rpm and 530 rpm and 430 rpm and 520 rpm and 460 rpm
7 | salt | 14% | 471 rpm | 410 rpm and 490 rpm (2×) and 510 rpm (2×) and 480 rpm (2×) and 400 rpm
